Data on eleven compounds can be found in patent US20260158009A1 (GENZYME CORPORATION, priority 2023, published 2026).

In one test the test system is U937 cells. The test can be described thus: Cellular assay in U937 cells: activity of RIPK1 inhibitors on TNFα/zVAD.fmk-induced cell death (necroptosis), CellTiter 96 AQueous (MTS) readout. Type of test: cell-based. The conditions noted are these: Homo sapiens, U-937. From the text:
Upon TNF-Receptor I ligation, Ser/Thr kinase RIPK1 is recruited to a transient receptor complex 1. Upon modification of RIPK1 which promotes activation of RIPK1, complex IIb can form, that involves recruitment of RIPK3 and MLKL (mixed lineage-kinase domain-like protein) which then translocates from the cytosol to the plasma membrane to execute cell death (Cai, Z. et al, Nat. Cell Biol. (2014) 16:55-65).
Cell death was quantified in 96 well plates by determination of the amount of live cell using a CellTiter 96 AQueous reagent (Promega), a calorimetric method to measure the number of live cells by reducing tetrazolium compound [3-(4,5-dimethylthiazol-2-yl)-5-(3-carboxymethoxyphenyl)-2-(4-sulfophenyl)-2H-tetrazolium, inner salt; MTS] into formazan. Absorbance of formazan was read at 490 nm. The inhibitory activity of the test compound was quantified in a concentration response curve (CRC) experiment.
Compounds were obtained as 10 mM stock solutions and were diluted 1 to 10 volumes with DMSO to yield a 1 mM solution. From this solution 2 μl were diluted with 998 μl growth medium. 100 μl of 2 μM compound solution was further diluted sequentially with a dilution factor of 2.5 by adding 150 μl growth medium. A total of 10 concentrations were tested ranging from 10 μM to 0.26 nM or from 1 μM to 0.07 nM.
U937 cells were cultured in RPMI1640 Glutamax and 10% heat inactivated FBS. 50 μl cell suspension containing 1×10^6 cells/ml supplemented with 50 μM zVAD.fmk (Benzyloxycarbonyl-Val-Ala-Asp (OMe) fluoromethylketone) and 100 ng/ml recombinant human TNF[…] were dispensed in each well of a 96-well plate. 50 μl of compound dilutions (described in Cellular assay in U937 cells) were added and the cell suspension incubated overnight (18 to 24 hrs) at 37° C., 5% CO2 in a humidified atmosphere (95% rH). High (no compound) and low control (no TNF[…], zVAD.fmk) were tested with 7 replicates; all compound concentrations were tested in duplicates on each experimental plate.
CellTiter 96 Aqueous reagent was mixed (100 μl PMS (phenazine methosulfate) solution/2 ml MTS (3-(4,5-[…])-5-(3-carboxymethoxyphenyl)-2-(4-sulfophenyl)-2H-tetrazolium, inner salt) solution) and 20 μl were added per well. After 4 hrs incubation at 37° C. (5% CO2 95% rH) optical density was measured at 490 nm on a microplate reader (Tecan Infinite M1000).
The % inhibition is expressed as percentage of the maximal inhibition value obtained in the absence of TNFα/zVAD.fmc.

For test [1], the target named is T1, hRIPK1 (aa 1-375) fusion protein (Homo sapiens, UniProt Q13546).
T1 construct: hRIPK1 (aa 1-375) fusion protein
T1 sequence (Q13546 1-375): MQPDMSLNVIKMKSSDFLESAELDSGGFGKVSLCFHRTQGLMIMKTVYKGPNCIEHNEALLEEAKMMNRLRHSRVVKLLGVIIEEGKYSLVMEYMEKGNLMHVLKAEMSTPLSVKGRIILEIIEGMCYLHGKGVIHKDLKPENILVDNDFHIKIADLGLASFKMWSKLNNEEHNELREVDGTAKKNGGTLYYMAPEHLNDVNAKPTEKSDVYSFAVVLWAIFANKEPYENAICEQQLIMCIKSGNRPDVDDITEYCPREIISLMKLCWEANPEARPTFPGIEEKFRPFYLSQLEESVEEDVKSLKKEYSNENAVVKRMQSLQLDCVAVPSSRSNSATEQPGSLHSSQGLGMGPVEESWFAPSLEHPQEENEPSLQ
The test can be described thus: ADP-Glo kinase assay: catalytic activity of RIPK1 (autophosphorylation, conversion of ATP to ADP). Format: biochemical. The method, then: The catalytic activity of RIPK1 was measured by monitoring the conversion of Adenosine triphosphate (ATP) to Adenosine diphosphate (ADP) due to autophosphorylation using an ADP-Glo kinase kit (Promega, catalog no. V9104).
In detail, 2 μl recombinantly produced hRIPK1 (aa 1-375) fusion protein (end concentration 3.6 μg/ml) and 2 μl compound (end concentration 33300-1.69 nM; DMSO end concentration 1%) were incubated for 30 minutes at room temperature and then 2 μl ATP (ADP Glo kit, end concentration 50 μM) were added. After another 240 minutes incubation at room temperature, 5 μl Promega ADP-Glo reagent I was added to quench the reaction and deplete unconsumed ATP. After an incubation period of 30 minutes, 10 μl Promega ADP-Glo detection reagent II was added resulting in conversion of ADP to ATP, which generates a light-reaction between luciferase and luciferin. Luminescence was quantified after 30 minutes with a Pherastar FS (BMG LABTECH, Ortenberg).
The adjustment was obtained by nonlinear regression using the Levenberg Marquardt algorithm.

As usually defined, the IC50 is the concentration that inhibits the measured activity by half. A higher IC50 goes with weaker potency in that assay.

Take `COc1cncc([C@@H]2CCON2C(=O)[C@H]2CC[C@H](Cn3ncc4cc(C#N)ccc43)CC2)n1` [compound 217, trans-1-[[4-[(3S)-3-(6-methoxypyrazin-2-yl)isoxazolidine-2-carbonyl]cyclohexyl]methyl]indazole-5-carbonitrile]: the half-inhibitory concentration (IC50) in the test with U937 cells is 12 nM; in test [1], 41 nM.

Take `N#Cc1cc(F)cc([C@@H]2CCON2C(=O)[C@H]2CC[C@H](Cn3cnc4cc(F)ccc43)CC2)c1` [compound 48, trans-3-fluoro-5-((S)-2-(4-((5-fluoro-1H-benzo[d]imidazol-1-yl)methyl)cyclohexane-1-carbonyl)isoxazolidin-3-yl)benzonitrile]: the results for the IC50 (with U937 cells; in test [1]) were 15 nM and 25 nM, respectively.

Consider `Cn1nccc1C[C@H]1CC[C@H](C(=O)N2OCC[C@H]2c2ccc(F)c(F)c2)CC1` [compound 311, trans-[(3S)-3-(3,4-difluorophenyl)isoxazolidin-2-yl]-[4-[(2-methylpyrazol-3-yl)methyl]cyclohexyl]methanone], for which the IC50 was 16 nM in the test with U937 cells and 11 nM in test [1].

Regarding `N#Cc1cc(F)cc([C@@H]2CCON2C(=O)[C@H]2CC[C@H](Cn3ncc4ccc(C#N)cc43)CC2)c1` [compound 28, trans-1-((4-((S)-3-(3-cyano-5-fluorophenyl)isoxazolidine-2-carbonyl)cyclohexyl)methyl)-1H-indazole-6-carbonitrile], the concentration for half-maximal inhibition (IC50) in the test on U937 cells is 3 nM; in test [1] it was 19 nM.

In the case of `N#Cc1ccc2cn(C[C@H]3CC[C@H](C(=O)N4OCC[C@H]4c4cc(F)cc(F)c4)CC3)nc2c1` [compound 31, trans-2-((4-((S)-3-(3,5-difluorophenyl)isoxazolidine-2-carbonyl)cyclohexyl)methyl)-2H-indazole-6-carbonitrile], the half-maximal inhibitory concentration (IC50) with U937 cells worked out at 19 nM; in test [1] it was 24 nM.

Turning to `Cc1ncc(C[C@H]2CC[C@H](C(=O)N3OCC[C@H]3c3cnc(C)c(F)c3)CC2)c(C)n1` [compound 393, [4-[(2,4-dimethylpyrimidin-5-yl)methyl]cyclohexyl]-[(3S)-3-(5-fluoro-6-methylpyridin-3-yl)-1,2-oxazolidin-2-yl]methanone], the IC50 in the test with U937 cells came to 33 nM; in test [1], 51 nM.

On to `N#Cc1cc(F)cc([C@@H]2CCON2C(=O)[C@H]2CC[C@H](Cc3cc(F)cc(CO)c3)CC2)c1` [Compound 256, trans-3-fluoro-5-[(3S)-2-[4-[[3-fluoro-5-(hydroxymethyl)phenyl]methyl]cyclohexanecarbonyl]isoxazolidin-3-yl]benzonitrile], for which the IC50 in the test on U937 cells stood at 1 nM; in test [1], 15 nM.

Consider `Cc1ccc([C@@H]2CCON2C(=O)[C@H]2CC[C@H](Cc3cc(F)c4nnc(C)n4c3)CC2)cn1` [compound 364, trans-[4-(8-Fluoro-3-methyl-[1,2,4]triazolo[4,3-a]pyridin-6-ylmethyl)-cyclohexyl]-[(S)-3-(6-methyl-pyridin-3-yl)-isoxazolidin-2-yl]-methanone], for which the IC50 in the test with U937 cells is 491 nM; in test [1], 234 nM.

For the compound `Cc1nc2ccc(C[C@H]3CC[C@H](C(=O)N4OCC[C@H]4c4ccc(F)cc4)CC3)cn2n1` [compound 260, trans-[(3S)-3-(4-fluorophenyl)isoxazolidin-2-yl]-[4-[(2-methyl-[1,2,4]triazolo[1,5-a]pyridin-6-yl)methyl]cyclohexyl]methanone], the 50% inhibitory concentration (IC50) with U937 cells is 25 nM; in test [1] it was 32 nM.

On to `Cc1nc([C@@H]2CCON2C(=O)[C@H]2CC[C@H](Cn3ccc4cc(C(N)=O)ccc43)CC2)cs1` [compound 254, trans-1-[[4-[(3S)-3-(2-methylthiazol-4-yl)isoxazolidine-2-carbonyl]cyclohexyl]methyl]indole-5-carboxamide], for which the half-inhibitory concentration (IC50) came out at 96 nM in the test on U937 cells and 20 nM in test [1].

On to `Cc1cc([C@@H]2CCON2C(=O)[C@H]2CC[C@H](Cn3ccc4c(F)cc(C#N)cc43)CC2)co1` [compound 47, trans-4-fluoro-1-((4-((S)-3-(5-methylfuran-3-yl)isoxazolidine-2-carbonyl)cyclohexyl)methyl)-1H-indole-6-carbonitrile], for which the IC50 with U937 cells stood at 3 nM; in test [1], 18 nM.
